These are literature values, as cited in patent publication US20170209372A1, “A Method of Preparing Amorphous Solid Dispersion in Submicron Range by Co-Precipitation” (HOVIONE INTERNATIONAL LTD, priority 2014, published 2017).

The term Log P denotes the decadic logarithm of the partition coefficient of the neutral form, usually between octanol and water. Regarding `NC(=O)N1c2ccccc2C=Cc2ccccc21` [Carbamazepine], the log partition coefficient (Log P) is recorded as around 2.6. For `C(=C\c1ccccc1)/CN1CCN(C(c2ccccc2)c2ccccc2)CC1` [Cinnarizine], the “Log P” value is reported as around 5.77.

On to `CCC(C)n1ncn(-c2ccc(N3CCN(c4ccc(OCC5COC(Cn6cncn6)(c6ccc(Cl)cc6Cl)O5)cc4)CC3)cc2)c1=O` (stereo not drawn) [Itraconazole], for which the log partition coefficient (Log P) was 4.4.
